In ChEMBL document CHEMBL3044730, “Synthesis, antimycobacterial, antiviral, antimicrobial activities, and QSAR studies of nicotinic acid benzylidene hydrazide derivatives” (Med Chem Res, 2012):
Converted amounts (≈) assume the structure as drawn.

Legend:
Human respirovirus 3 = test: Antiviral activity against Human parainfluenza virus 3 infected Vero cells assessed as inhibition of virus-induced cytopathicity by microscopy; format: functional, organism-based; conditions: Human respirovirus 3, Vero
Human alphaherpesvirus 2 = test: Antiviral activity against Human herpesvirus 2 strain G infected human HEL cells assessed as inhibition of virus-induced cytopathicity by microscopy; format: functional, organism-based; conditions: Human alphaherpesvirus 2, strain G
[1] = tested on: Human immunodeficiency virus 2; test: Antiviral activity against Human immunodeficiency virus type 2 (ISOLATE ROD) infected MT4 cells assessed as inhibition of virus-induced cytopathic effect after 4 days by MTT assay; format: functional, organism-based; conditions: Human immunodeficiency virus 2, ISOLATE ROD, MT4, 96 h
[2] = tested on: Respiratory syncytial virus; test: Antiviral activity against Respiratory syncytial virus infected human HeLa cells assessed as inhibition of virus-induced cytopathicity by microscopy; format: functional, organism-based
[3] = tested on: Human herpesvirus 3 strain Oka vaccine; test: Antiviral activity against Human herpesvirus 3 strain Oka vaccine OKA 07-1 (Varicella zoster virus) infected in human HEL cells assessed as inhibition of virus-induced cytopathicity; format: functional, organism-based; conditions: Human alphaherpesvirus 3, OKA 07-1, HEL
[4] = tested on: Human immunodeficiency virus 1; test: Antiviral activity against Human immunodeficiency virus 1 IIIB infected MT4 cells assessed as inhibition of virus-induced cytopathic effect after 4 days by MTT assay; format: functional, organism-based; conditions: MT4, 96 h
Candida albicans [5] = test: Antimicrobial activity against Candida albicans after 7 days by serial dilution method; format: functional; set-up: unit not given here
[6] = Cytotoxicity against Homo sapiens (human) HEL cells assessed as alteration in cell morphology by microscopy; format: cell-based
Candida albicans [7] = test: Antimicrobial activity against Candida albicans after 2 days by serial dilution method; format: functional; set-up: unit not given here
[8] = tested on: Mammalian orthoreovirus 1; test: Antiviral activity against Mammalian orthoreovirus 1 infected Vero cells assessed as inhibition of virus-induced cytopathicity by microscopy; format: functional, organism-based; conditions: Mammalian orthoreovirus 1, Vero
[9] = Cytotoxicity against Homo sapiens (human) HeLa cells assessed as alteration in cell morphology by microscopy; format: cell-based
Human alphaherpesvirus 1 [10] = test: Antiviral activity against TK(-) aciclovir-resistant Human herpesvirus 1 strain KOS infected in human HEL cells assessed as inhibition of virus-induced cytopathicity; format: functional, organism-based; conditions: Human alphaherpesvirus 1, KOS
[11] = tested on: Mycobacterium tuberculosis; test: Antimicrobial activity against Mycobacterium tuberculosis by agar dilution method; format: functional
Staphylococcus aureus = test: Antimicrobial activity against Staphylococcus aureus after 24 hr by serial dilution method; format: functional; set-up: unit not given here
Human alphaherpesvirus 1 [12] = test: Antiviral activity against Human herpesvirus 1 strain KOS infected in human HEL cells assessed as inhibition of virus-induced cytopathicity by microscopy by microscopy; format: functional, organism-based; conditions: Human alphaherpesvirus 1, KOS
[13] = tested on: Human herpesvirus 5 strain AD169; test: Antiviral activity against Human herpesvirus 5 strain AD169 Davis infected human HEL cells assessed as inhibition of virus-induced cytopathicity by microscopy; format: functional, organism-based; conditions: Human betaherpesvirus 5, Davis
Escherichia coli = test: Antimicrobial activity against Escherichia coli after 24 hr by serial dilution method; format: functional; set-up: unit not given here
[14] = tested on: Vesicular stomatitis virus; test: Antiviral activity against Vesicular stomatitis virus infected human HeLa cells assessed as inhibition of virus-induced cytopathicity by microscopy; format: functional, organism-based
Vaccinia virus = test: Antiviral activity against Vaccinia virus infected human HEL cells assessed as inhibition of virus-induced cytopathicity by microscopy; format: functional, organism-based; conditions: Orthopoxvirus vaccinia
Punta Toro virus = test: Antiviral activity against Punta Toro virus infected Vero cells assessed as inhibition of virus-induced cytopathicity; format: functional, organism-based
[15] = Cytotoxicity against Homo sapiens (human) MT4 cells after 4 days by MTT assay; format: cell-based
Coxsackievirus B4 [16] = test: Antiviral activity against Human coxsackievirus B4 infected Vero cells assessed as inhibition of virus-induced cytopathicity; format: functional, organism-based; conditions: Enterovirus B
Sindbis virus = test: Antiviral activity against Sindbis virus infected Vero cells assessed as inhibition of virus-induced cytopathicity; format: functional, organism-based
Bacillus subtilis = test: Antimicrobial activity against Bacillus subtilis after 24 hr by serial dilution method; format: functional; set-up: unit not given here
[17] = Cytotoxicity against Chlorocebus aethiops (African green monkey) Vero cells assessed as alteration in cell morphology by microscopy; format: cell-based; conditions: chlorocebus sabaeus
Coxsackievirus B4 [18] = test: Antiviral activity against Human coxsackievirus B4 infected human HeLa cells assessed as inhibition of virus-induced cytopathicity by microscopy; format: functional, organism-based; conditions: Enterovirus B

SMILES	EC50 (Human respirovirus 3) [µg/mL]	EC50 (Human alphaherpesvirus 2) [µg/mL]	EC50 [1] [µg/mL]	EC50 [2] [µg/mL]	EC50 [3] [µg/mL]	EC50 [4] [µg/mL]	-logMIC (Candida albicans [5])	CC50 [6] [µg/mL]	MCC [6] [µg/mL]	-logMIC (Candida albicans [7])	EC50 [8] [µg/mL]	MCC [9] [µg/mL]	EC50 (Human alphaherpesvirus 1 [10]) [µg/mL]	MIC [11] [µg/mL]	-logMIC (Staphylococcus aureus)	EC50 (Human alphaherpesvirus 1 [12]) [µg/mL]	EC50 [13] [µg/mL]	-logMIC (Escherichia coli)	CC50 at 96 h [15] [µg/mL]	-logMIC (Bacillus subtilis)	also measured
O=C(N/N=C/c1ccc(Cl)cc1)c1cccnc1	> 100	> 100	> 76	> 100	> 100	> 76	1.92	29 (≈ 112 µM)	> 100	1.32	> 100	> 100	> 100	25 (≈ 96.3 µM)	1.32	> 100	> 100	1.32	76 (≈ 293 µM)	1.02	EC50 [14]: > 100 µg/mL; EC50 (Vaccinia virus): > 100 µg/mL; EC50 (Punta Toro virus): > 100 µg/mL; EC50 (Coxsackievirus B4 [16]): > 100 µg/mL; EC50 (Sindbis virus): > 100 µg/mL; MCC [17]: > 100 µg/mL; EC50 (Coxsackievirus B4 [18]): > 100 µg/mL
COc1cc(/C=N/NC(=O)c2cccnc2)ccc1O	> 100	> 20	> 93	> 100	> 100	> 93	1.64	> 100	100	1.34	> 100	> 100	> 20	> 25	0.43	> 20	> 20	0.43	≥ 93	0.43	EC50 [14]: > 100 µg/mL; EC50 (Vaccinia virus): > 20 µg/mL; EC50 (Punta Toro virus): > 100 µg/mL; EC50 (Coxsackievirus B4 [16]): > 100 µg/mL; EC50 (Sindbis virus): > 100 µg/mL; MCC [17]: > 100 µg/mL; EC50 (Coxsackievirus B4 [18]): > 100 µg/mL
O=C(N/N=C/c1cccc(Br)c1)c1cccnc1	> 100	> 100	> 66	> 100	> 100	> 66	1.99	55 (≈ 181 µM)	> 100	1.38	> 100	≥ 100	> 100	> 25	1.09	> 100	> 100	1.39	66 (≈ 217 µM)	1.39	EC50 [14]: > 100 µg/mL; EC50 (Vaccinia virus): > 100 µg/mL; EC50 (Punta Toro virus): > 100 µg/mL; EC50 (Coxsackievirus B4 [16]): > 100 µg/mL; EC50 (Sindbis virus): > 100 µg/mL; MCC [17]: ≥ 100 µg/mL; EC50 (Coxsackievirus B4 [18]): > 100 µg/mL
NNC(=O)c1ccncc1 [ISONIAZID]														0.1 (≈ 0.729 µM)							
O=C(N/N=C/c1ccccc1[N+](=O)[O-])c1cccnc1	> 100	> 100	> 68	> 100	> 100	> 68	1.94	46 (≈ 170 µM)	> 100	1.33	> 100	> 100	> 100	> 25	1.33	> 100	> 100	1.33	68 (≈ 252 µM)	1.94	EC50 [14]: > 100 µg/mL; EC50 (Vaccinia virus): > 100 µg/mL; EC50 (Punta Toro virus): > 100 µg/mL; EC50 (Coxsackievirus B4 [16]): > 100 µg/mL; EC50 (Sindbis virus): > 100 µg/mL; MCC [17]: > 100 µg/mL; EC50 (Coxsackievirus B4 [18]): > 100 µg/mL
O=C(N/N=C/c1ccccc1)c1cccnc1 [NICOTINIC ACID BENZYLIDENE-HYDRAZIDE]	> 100	> 100	> 125	> 20	> 100	> 125	1.86	> 100	> 100	1.25	> 100	100	> 100	> 25	0.35	> 100	> 100	1.26	> 125	0.95	EC50 [14]: > 20 µg/mL; EC50 (Vaccinia virus): > 100 µg/mL; EC50 (Punta Toro virus): > 100 µg/mL; EC50 (Coxsackievirus B4 [16]): > 100 µg/mL; EC50 (Sindbis virus): > 100 µg/mL; MCC [17]: > 100 µg/mL; EC50 (Coxsackievirus B4 [18]): > 20 µg/mL
O=C(N/N=C/c1ccccc1Br)c1cccnc1	> 100	> 20	> 0.22	> 100	> 51	> 0.22	1.69	2.6 (≈ 8.55 µM)	100	1.39	> 100	> 100	> 20	> 25	1.09	> 20	> 100	1.39	≥ 0.22	1.39	EC50 [14]: > 100 µg/mL; EC50 (Vaccinia virus): > 20 µg/mL; EC50 (Punta Toro virus): > 100 µg/mL; EC50 (Coxsackievirus B4 [16]): > 100 µg/mL; EC50 (Sindbis virus): > 100 µg/mL; MCC [17]: > 100 µg/mL; EC50 (Coxsackievirus B4 [18]): > 100 µg/mL
COc1ccc(/C=N/NC(=O)c2cccnc2)cc1	> 100	> 100	> 99	> 100	> 100	> 99	1.61	> 100	> 100	1.31	> 100	> 100	> 100	> 25	1.31	> 100	> 100	1.31	99 (≈ 388 µM)	1.31	EC50 [14]: > 100 µg/mL; EC50 (Vaccinia virus): > 100 µg/mL; EC50 (Punta Toro virus): > 100 µg/mL; EC50 (Coxsackievirus B4 [16]): > 100 µg/mL; EC50 (Sindbis virus): > 100 µg/mL; MCC [17]: > 100 µg/mL; EC50 (Coxsackievirus B4 [18]): > 100 µg/mL
O=C(N/N=C/c1cccc([N+](=O)[O-])c1)c1cccnc1	> 100	> 100	> 54	> 4	> 100	> 54	1.64	13 (≈ 48.1 µM)	> 100	1.33	> 100	20	> 100	> 25	1.33	> 100	> 20	1.94	54 (≈ 200 µM)	1.64	EC50 [14]: > 4 µg/mL; EC50 (Vaccinia virus): > 100 µg/mL; EC50 (Punta Toro virus): > 100 µg/mL; EC50 (Coxsackievirus B4 [16]): > 100 µg/mL; EC50 (Sindbis virus): > 100 µg/mL; MCC [17]: ≥ 100 µg/mL; EC50 (Coxsackievirus B4 [18]): > 4 µg/mL
O=C(N/N=C/c1cccc(O)c1)c1cccnc1	> 100	> 100	> 98	> 100	> 100	> 98	1.29	> 100	> 100	1.28	> 100	> 100	> 100	> 25	1.29	> 100	> 100	1.29	98 (≈ 406 µM)	1.29	EC50 [14]: > 100 µg/mL; EC50 (Vaccinia virus): > 100 µg/mL; EC50 (Punta Toro virus): > 100 µg/mL; EC50 (Coxsackievirus B4 [16]): > 100 µg/mL; EC50 (Sindbis virus): > 100 µg/mL; MCC [17]: > 100 µg/mL; EC50 (Coxsackievirus B4 [18]): > 100 µg/mL
CCn1cc(C(=O)O)c(=O)c2cc(F)c(N3CCNCC3)cc21 [NORFLOXACIN]															2.61			2.61		2.61	
NNC(=O)c1cccnc1 [NICOTINIC ACID HYDRAZIDE]							1.04			1.04					0.74			0.74		1.04	
O=C(O)c1cn(C2CC2)c2cc(N3CCNCC3)c(F)cc2c1=O [CIPROFLOXACIN]														3.13 (≈ 9.45 µM)							
CC[C@@H](CO)NCCN[C@@H](CC)CO [ETHAMBUTOL]														1.56 (≈ 7.64 µM)							
Cc1ccnc2c1NC(=O)c1cccnc1N2C1CC1 [NEVIRAPINE]			4 (≈ 15 µM)			0.05 (≈ 0.188 µM)													> 4		
OC(Cn1cncn1)(Cn1cncn1)c1ccc(F)cc1F [FLUCONAZOLE]							2.64			2.64											
Cc1cn([C@H]2C[C@H](N=[N+]=[N-])[C@@H](CO)O2)c(=O)[nH]c1=O [ZIDOVUDINE]			0.0009 (≈ 0.00337 µM)																> 2.5		
